Reference: paper PMC9267852, “Hepatic Expression of the Na^+-Taurocholate Cotransporting Polypeptide Is Independent from Genetic Variation” (International Journal of Molecular Sciences, 2022)
Substitutions are numbered along the chain they refer to.

Tests used:
Format in all cases: cell-based
[1] = molecular target: T1, Na+-taurocholate cotransporting polypeptide (NTCP) (Homo sapiens, UniProt Q14973); experiment: inhibition of [3H]taurocholate uptake in NTCP-expressing HEK cells; remdesivir also taken up sodium-dependently (Km […])
T1 construct: gene SLC10A1
T1 sequence (Q14973 1-349): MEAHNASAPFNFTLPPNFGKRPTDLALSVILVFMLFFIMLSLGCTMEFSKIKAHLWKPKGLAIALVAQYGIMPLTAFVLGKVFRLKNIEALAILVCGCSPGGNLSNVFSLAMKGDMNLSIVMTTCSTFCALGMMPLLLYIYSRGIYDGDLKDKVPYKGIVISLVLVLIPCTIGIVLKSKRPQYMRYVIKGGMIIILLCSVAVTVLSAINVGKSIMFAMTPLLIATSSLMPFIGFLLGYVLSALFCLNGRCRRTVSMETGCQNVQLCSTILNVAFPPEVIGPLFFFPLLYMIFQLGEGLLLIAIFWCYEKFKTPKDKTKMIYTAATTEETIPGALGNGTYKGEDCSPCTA

[2] = molecular target: T2, Na+-taurocholate cotransporting polypeptide (NTCP) (Homo sapiens, UniProt Q14973, R185C); experiment: inhibition of [3H]taurocholate uptake in NTCP-R185C-expressing HEK cells; sodium-dependent remdesivir uptake Km […]
T2 construct: gene SLC10A1; NTCP-p.R185C, stably expressed in HEK cells
T2 sequence (Q14973 1-349 R185C): T1 sequence (Q14973 1-349) with R185C

[3] = molecular target: T3, Na+-taurocholate cotransporting polypeptide (NTCP) (Homo sapiens, UniProt Q14973, S213R); experiment: inhibition of [3H]taurocholate uptake in NTCP-S213R-expressing HEK cells; sodium-dependent remdesivir uptake Km […]
T3 construct: gene SLC10A1; NTCP-p.S213R, stably expressed in HEK cells
T3 sequence (Q14973 1-349 S213R): T1 sequence (Q14973 1-349) with S213R

IC50 [1]: 90.3 µM
IC50 [2]: 65 µM
IC50 [3]: 63.1 µM
Compound: CCC(CC)COC(=O)[C@H](C)N[P@](=O)(OC[C@H]1O[C@@](C#N)(c2ccc3c(N)ncnn23)[C@H](O)[C@@H]1O)Oc1ccccc1 [remdesivir]
